In patent US20230263783A1, “CANCER TREATMENT BY COMBINED INHIBITION OF POLO-LIKE KINASE AND MICROTUBULE POLYMERIZATION” (Massachusetts Institute of Technology, priority 2022, published 2023):
Where two headings read alike, the source gives them in different places.

Legend:
HCT 116 xenografts = conditions: cited from earlier work
[1] = cited from earlier work; for maximum tolerated dose: elderly patients with relapsed/refractory AML
BxPC-3 = conditions: twice-weekly; cited from earlier work
A549 = conditions: twice-weekly; cited from earlier work
[2] = system: C4-2 castrate resistant prostate cancer (CRPC) cells; test: Relative viability after drug dose matrix (CellTiter-Glo, Bliss Independence) in C4-2 cells; type: cell-based; conditions: for effect of the combination of TH588 with a Plk1 inhibitor: each Plk1 inhibitor in combination with TH588, relative viability
Description: All cell lines were cultured in a humidified incubator at 37° C. and with 5% CO2, were maintained sub-confluent and used for no more than 20 passages. Media was supplemented with 10% fetal bovine serum (FBS), contained 2 mM glutamine and lacked antibiotics, unless otherwise noted. A549, BT-20, CCD-1112sk, CCD-18co, CFPAC1, HCT 116, HeLa, HT-29, HT55, MCF7, MDA-MB-157, MDA-MB-231, MDA-MB-415, MDA-MB-436, MDA-MB-453, MDA-MB-468, SW48, T98G, U-2 OS, U-87 MG, CAOV3, COV362, and JIMT1 cells were grown in DMEM; 22RV1, AU565, C4-2, CAL33, COL0205,HCC38, HCT-15, KYSE150, LNCaP, LOVO, NCI-H1299, PC-3, ZR-75-1, HCC1419, HCC1569, HCC1954, ZR7530, OVCAR-4, OVCAR8 cells were grown in RPMI 1640; HT1197, HT1376, J82, UMUC3 cells were grown in MEM; OV90, TOV122D, TOV21G cells were grown in 1:1 MCDB105:Medial99 15% FBS; 59M, OAW28, OAW42 cells were grown in Advanced DMEM 0.023 IU/ml insulin; ES2, SKOV3 cells were grown in McCoy's 5A; JHOS2, JHOS4 cells were grown in 1:1 DMEM:HamF12; HUVEC cells were grown in EBM with EGM™-2 BULLETKIT™
(§1) For dose response experiments and experiments that examine synergy as a measure of change in relative viability, cells were grown in 384-well plates in triplicate. The following day the cells were subjected to a drug dose matrix that consisted of increasing concentrations of a Plk inhibitor, increasing concentrations of a microtubule polymerization inhibitor, and all pairwise combinations. Drugs were dissolved in DMSO and diluted in the appropriate cell growth media while maintaining a constant final concentration of DMSO. After five days, relative viability was assessed using […]-GLO™ (Promega) Luminescent Cell Viability Assay according to the manufacturer's recommendations. Luminescence was measured using an […]™ M200 Pro plate reader (Tecan Group Ltd.). […] The dose response plots (for example FIG. 1A) show sensitivity to increasing concentrations of a microtubule polymerization inhibitor in the absence or presence of a constant amount of Plk inhibitor. Bars represent the standard error of the mean. The concentration of Plk inhibitor chosen to presented was based on a ˜20-30% reduction of viability when that drug was used at that dose in isolation. The entire amount of greater-than-additive response observed in the dose matrix is the integrated volume between the observed and expected surfaces generated by the response matrix and is also known as Bliss Volume. Bliss Volume synergy metrics are presented in FIG. 3 as the fractional change in volume between the expected and observed response surfaces.

mouse xenograft models = conditions: 10 mg/kg and 20 mg/kg on days 1 and 28; cited from earlier work
[3] = target: several tyrosine kinases and cyclin-dependent kinase 1; conditions: read-out: IC50, tyrosine kinases and Cdk1; cited from earlier work
BT20 cells = conditions: 200 mg/kg; cited from earlier work
[4] = system: Bel-7402, MCF-7, and MIA-PaCa cells; conditions: 250 mg/kg; cited from earlier work
Plk1 = Plk1 (Homo sapiens, UniProt P53350); conditions: cited from earlier work
Sequence of Plk1 (P53350 whole entry): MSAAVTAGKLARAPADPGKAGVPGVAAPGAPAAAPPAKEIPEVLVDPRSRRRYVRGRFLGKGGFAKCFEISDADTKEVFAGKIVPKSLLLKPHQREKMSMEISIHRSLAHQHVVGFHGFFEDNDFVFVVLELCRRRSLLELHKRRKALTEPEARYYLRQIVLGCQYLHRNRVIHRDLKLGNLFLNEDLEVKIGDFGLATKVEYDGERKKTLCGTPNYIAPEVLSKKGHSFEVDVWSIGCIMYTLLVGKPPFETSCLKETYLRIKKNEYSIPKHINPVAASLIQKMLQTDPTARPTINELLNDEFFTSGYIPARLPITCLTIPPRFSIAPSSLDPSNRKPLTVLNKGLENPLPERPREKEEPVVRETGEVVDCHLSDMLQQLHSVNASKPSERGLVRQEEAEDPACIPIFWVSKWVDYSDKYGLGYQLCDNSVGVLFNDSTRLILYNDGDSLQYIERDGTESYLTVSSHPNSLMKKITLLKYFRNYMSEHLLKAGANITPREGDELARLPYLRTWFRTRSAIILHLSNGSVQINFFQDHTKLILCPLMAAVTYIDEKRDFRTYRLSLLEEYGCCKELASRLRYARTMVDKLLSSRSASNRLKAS

[5] = system: HT-29 human colorectal tumors; conditions: cited from earlier work
tubulin = test: Microtubule polymerization in vitro; type: biochemical
non-cancer cells = test: Combination synergy (Bliss Volume) in non-cancer cell lines; type: cell-based; conditions: TH588 with a Plk1 inhibitor; FIG. 3
Description: (§2) All cell lines were cultured in a humidified incubator at 37° C. and with 5% CO2, were maintained sub-confluent and used for no more than 20 passages. Media was supplemented with 10% fetal bovine serum (FBS), contained 2 mM glutamine and lacked antibiotics, unless otherwise noted. […]
(§3) For dose response experiments and experiments that examine synergy as a measure of change in relative viability, cells were grown in 384-well plates in triplicate. […] After five days, relative viability was assessed using […]-GLO™ (Promega) Luminescent Cell Viability Assay according to the manufacturer's recommendations. Luminescence was measured using an […]™ M200 Pro plate reader (Tecan Group Ltd.). […]

C4-2 CRPC cells [6] = test: Flow cytometry for apoptotic cells (cleaved caspase-3); type: cell-based; conditions: TH588 with Plk1 inhibitor BI2536, 0 to 48 hours, FIG. 1C
Description: (§4) C4-2 CRPC cells were plated in 6-well plates at a density of 300,000 cells per well and a total volume of 3 mls. The next day drugs were diluted in the appropriate growth media while maintaining a constant concentration of DMSO and added to the wells. After the indicated amount of time, cells were harvested by trypsinization. The media, trypsin and PBS wash were collected together to avoid loss of loosely attached or detached cells. Cells were fixed in 4% formaldehyde in PBS for 15 minutes, washed with PBS containing 1% bovine serum albumin (PBS-BSA), and then stored in methanol at −20° C. overnight. Cells were then washed twice in PBS-BSA 0.1% Tween-20, incubated with primary antibodies overnight at 4° C., washed with PBS-BSA 0.1% Tween-20 and incubated for 1 hour with fluorescent-dye conjugated secondary antibodies (diluted 1:200, Alexa Fluor, Molecular Probes) at room temperature for 1 hour. Primary antibodies included anti-phospho-serine 10 histone H3 (clone 3H10, Millipore) and anti-active caspase-3 (clone C92-605, BD Pharmingen). The fixed cells were then washed with PBS-BSA 0.1% Tween-20 and resuspended in PBS containing 1 μg/ml 4,6-diamidino-2-phenylindole (DAPI, Molecular Probes) to stain DNA and analyzed using a BD™ LSRII flow cytometer (Becton Dickinson) and the FLOWJO™ software package. Shown is the average of three replicates±standard error of the mean.

C4-2 CRPC cells [7] = test: Flow cytometry for mitotic cells (phospho-Ser10 Histone H3); type: cell-based; conditions: TH588 with Plk1 inhibitor BI2536, 0 to 48 hours, FIG. 1B
Description: as §4

[8] = system: C4-2 CRPC xenograft tumors; test: Microwell tumor-implantable device, apoptotic index in xenograft tumors; type: in vivo, mice; conditions: half-dose BI2536 with half-dose TH588 versus monotherapy wells, 24 hours after implantation, p<0.01, FIG. 2B
Description: C4-2 CRPC xenograft tumors were grown in four to six week old castrated male NCR nude mice. Five million C4-2 cells in 200 μl serum free media, mixed 1:1 with growth factor reduced […]® (Invitrogen) were injected into the hind flank subcutaneously using a 23 gauge needle. Tumors took four to eight weeks to grow. Microdose drug delivery devices were manufactured, implanted, and analyzed as described by Jonas, O., et al. Science Translational Medicine, 7(284): 284ra57 (2015). […] Tumors were excised 24 hours after device implantation, fixed in 10% formalin for 24 hours, and embedded in paraffin. Sections were stained with cleaved caspase-3 antibody (Cell Signaling Technologies, 9664) followed by detection with horseradish peroxidase conjugated secondary antibody and diaminobenzidine with hematoxylin used as a counterstain. Images were viewed using an EVOS® Cell Imaging System (Invitrogen) microscope, and scored using ImageJ in a blinded manner. Apoptotic index (Al) was calculated as the percentage of cells that were cleaved caspase-3-positive within […] of the reservoir-tissue interface.

[9] = system: cancer cell lines of various origin; test: Combination synergy (Bliss Volume) in cancer cell lines of various origin; type: cell-based; conditions: TH588 with a Plk1 inhibitor; approximately thirty cell lines, in the majority of these; FIG. 3
Description: as §2, §3

tumor cells = test: Tumor cell killing by other microtubule polymerization inhibitors with Plk1 inhibitors; type: cell-based; conditions: in combination with Plk1 inhibitors
Description: as §1, with “Bliss Volume synergy metrics are presented in FIG. 3 as the fractional change in volume between the expected and observed response surfaces.” left out

[10] = system: Cdc25C-T96 phosphorylation; conditions: direct readout of PLK1 inhibition; cited from earlier work
[11] = cited from earlier work
cell mitosis = conditions: read-out: EC50, inhibition of cell mitosis; cited from earlier work

## CC[C@@H]1C(=O)N(C)c2cnc(Nc3ccc(C(=O)NC4CCN(C)CC4)cc3OC)nc2N1C1CCCC1 [BI2536]
HCT 116 xenografts; 50 mg/kg once per week
  T/C, HCT 116 xenografts: 15%
HCT 116 xenografts; 50 mg/kg twice per week
  T/C, HCT 116 xenografts: 0.3%
[1]; Frost et al.
  MTD suggested by other studies: 50 to 70 mg
[1]; day 1 schedule
  maximum tolerated dose: 350 mg
[1]; days 1+8 schedule
  maximum tolerated dose: 200 mg
[1]; intravenous, NSCLC, day 1 every 3 weeks
  maximum tolerated dose (MTD) in combination with pemetrexed: 300 mg
[1]; with 500 mg/m^2 pemetrexed, NSCLC, day 1 every 3 weeks, two DLT
  dose at which dose-limiting toxicities occurred: 325 mg
BxPC-3
  T/C, BxPC-3 model: 5%
A549
  T/C, A549 model: 14%
[2]
  effect of the combination of TH588 with a Plk1 inhibitor: more than additive

## C[C@@H](Oc1cc(-n2cnc3ccc(CN4CCN(C)CC4)cc32)sc1C(N)=O)c1ccccc1C(F)(F)F [GSK461364]
[1]; intravenously, schedule A (days 1, 8, and 15 of 28-day cycle)
  final recommended phase II dose: 225 mg
[1]; phase I, advanced solid tumors
  incidence of venous thrombotic emboli (VTE): 20%
[2]
  effect of the combination of TH588 with a Plk1 inhibitor: more than additive

## COc1ccc(S(=O)(=O)Nc2ccccc2/C=C/c2cc[n+]([O-])cc2)cc1 [HMN-176]
Mouse xenograft models
  antitumor activity in mouse xenograft models: potent antitumor activity

## COc1ccc(S(=O)(=O)N(C(C)=O)c2ccccc2/C=C/c2cc[n+]([O-])cc2)cc1 [HMN-214]
[1]; 5 consecutive days every 4 weeks, based on previous patient treatment load
  MTD: 18 to 30 mg/m^2
[1]; 5 consecutive days every 4 weeks
  doses at which DLTs were observed: 24 to 48 mg/m^2
[1]; continuous 21-day dosing every 28 days
  maximum tolerated dose and recommended dose: 8.0 mg/m^2/d
[1]; continuous 21-day dosing every 28 days, myalgia/bone pain syndrome and hyperglycemia
  dose with dose-limiting toxicities: 9.9 mg/m^2/d

## COc1cc(OC)c(/C=C/S(=O)(=O)Cc2ccc(OC)c(NCC(=O)[O-])c2)c(OC)c1.[Na+] [ON 01910]
[1]; i.v., days 1, 4, 8, 11, 15, and 18 in 28-day cycles, advanced solid tumors
  MTD: 3,120 mg
[3]
  IC50: 18 to 260 nM
BT20 cells
  tumor growth in xenograft model: inhibition of tumor growth
[4]
  tumor growth in xenograft models: inhibited tumor growth

## COc1cc(C(=O)N[C@H]2CC[C@H](N3CCN(C)CC3)CC2)ccc1Nc1ncc2c(n1)N(C1CCCC1)CC1(CC1)C(=O)N2C [Plogosertib]
Plk1
  IC50: 3 nM

## COc1cc(C(=O)NC2CCN(C)CC2)ccc1Nc1ncc2c(n1)N(C1CCCC1)CC(F)(F)C(=O)N2C [RO3280]
[5]; dosed more frequently
  antitumor activity when dosed more frequently: complete tumor regression
[5]; once weekly at 40 mg/kg
  tumor growth inhibition: 72%

## Nc1nc(NC2CC2)cc(-c2cccc(Cl)c2Cl)n1 [TH588]
tubulin
  microtubule polymerization in vitro: inhibits microtubule polymerization
non-cancer cells
  effect of killing by the drug combination in non-cancer cells: not more than additive
C4-2 CRPC cells [6]
  apoptotic cancer cell killing with the combination: greater than additive
C4-2 CRPC cells [7]
  mitotic arrest with the combination: greater than additive
[8]
  effect on tumor cell killing in vivo (cleaved caspase-3 positive cells): more-than-additive
[9]
  effect of tumor cell killing using the combination treatment: more than additive
[2]; C4-2 CRPC cells, TH588 with BI2536, five days, Bliss Independence model, FIG. 1A
  effect of killing cancer cells by the combination of Plk1 inhibitors with TH588, versus each alone: more than additive

## COC(=O)Nc1nc2ccc(C(=O)c3cccs3)cc2[nH]1 [nocodazole]
Tumor cells
  effect when used with Plk1 inhibitors in killing tumor cells: more-than-additive effect

## CN1CCN(c2ccc(OC(F)(F)F)c(Nc3ncc4c(n3)-c3c(c(C(N)=O)nn3CCO)CC4)c2)CC1 [onvansertib]
[2]
  effect of the combination of TH588 with a Plk1 inhibitor: more than additive

## CC[C@]1(O)C[C@@H]2C[N@@](CCc3c([nH]c4ccccc34)[C@@](C(=O)OC)(c3cc4c(cc3OC)N(C=O)[C@H]3[C@@](O)(C(=O)OC)[C@H](OC(C)=O)[C@]5(CC)C=CCN6CC[C@]43[C@@H]65)C2)C1 [vincristine]
Tumor cells
  effect when used with Plk1 inhibitors in killing tumor cells: more-than-additive effect

## MLN0905
[10]
  EC50: 29 nM
[11]; QD (daily) schedule
  maximum tolerated dose: 6.25 mg/kg
[11]; QDx3/wk (3-days on/4-days off) schedule
  maximum tolerated dose: 14.5 mg/kg
Cell mitosis
  EC50: 9 nM
